Each block holds one compound with its values, some of them ahead of it.
Assays:
[1] = system: human MAIT TCR-transduced Jurkat T cells and MR1-overexpressed C1R cells; assay: MAIT reporter cell activation assay (surface CD69 on Jurkat.MAIT); assay type: cell-based; details: Jurkat.MAIT + C1R.MR1, 16 h
Protocol: MAIT activation was evaluated using a well established reporter assay[17] by co-culturing two cell lines (human MAIT TCR-transduced Jurkat T cells and MR1-overexpressed C1R cells, Fig. 3g).
MAIT reporter cell activation assays and MR1 upregulation assays were performed by slight modifications to reported methods. Briefly, Jurkat cells transduced with genes encoding a MAIT TCR comprising the TRAV1-2-TRAJ33 invariant α chain, and a TRBV6-1 β chain, were tested for activation by co-incubation with compounds and C1R antigen-presenting cells expressing MR1 (CIR.MR1) for 16 h or over a time course as indicated. Cells were subsequently stained with PE-Cy7-conjugated anti-CD3 (UCHT1, eBioscience, 1:300), and APC-conjugated anti-CD69 (BD, 1:25) antibodies as well as biotinylated anti-MR1 mAb 26.5, a gift from Dr Ted Hansen, Washington University School of Medicine, St Louis, MO[53], followed by Streptavidin-PE (BD, 1:1,000), before analysis by on a FACS CantoII (BD) flow cytometer. Activation of Jurkat.MAIT was measured by an increase in surface CD69 expression. MR1 expression was detected on gated C1R.MR1 cells in the same assay. […]
MAIT reporter cell activation assay
Conducted as described previously16. Jurkat cells transduced with genes encoding a MAIT TCR comprising the TRAV1-2-TRAJ33 invariant α chain and a TRBV6-1 β chain were co-incubated with C1R antigen presenting cells expressing MR1 (CIR.MR1) in the presence of graded amounts of ligands for 16 h. Cells were subsequently stained with PE-Cy7-conjugated anti-CD3 (eBioscience), and APC-conjugated anti-CD69 (BD Biosciences) antibodies, followed by Streptavidin-PE (BD Biosciences), before analysis by flow cytometry. Activation of Jurkat.MAIT cells was measured by an increase in surface CD69 expression.

[2] = Stability in aqueous media (LCMS); details: for t1/2: C0 0.065 mM
Protocol: (§1) Stock solutions of either crude (3a, 3b and 9) or purified compounds (3c, 10 and 11) in DMSO-d6, with a known concentration calibrated using the PULCON NMR technique[52], were dissolved in aqueous buffers, such as TBS buffer (10 mM Tris, 150 mM NaCl, pH 8.0), PBS (pH 7.4), MilliQ water (pH 6.8), or aqueous ammonium acetate buffer (20 mM, pH 5.4, 150 mM NaCl). Consumption of 3 was monitored by LCMS.
(§2) Stability in aqueous media. TBS buffer (10 mM Tris, 150 mM NaCl,
(§3) pH 8.0), PBS (pH 7.4), MilliQ water (pH 6.8), or ammonium acetate buffer (20 mM, 150 mM
(§4) The initial concentration was quantified by measuring the LCMS UV chromatogram
(§5) absorbance peak area at 365 nm. Data shown as % of initial concentration.

human MR1 = target: T1, human MR1 (Homo sapiens, UniProt Q95460); assay: MR1 refolding with ligand; assay type: binding; details: in the presence of the compound
T1 construct: Genes encoding soluble human MR1 or human β2m were expressed; made in house
Protocol: E. coli were pelleted and resuspended in a buffer containing 50 mM Tris, 25% (w/v) sucrose, 1 mM EDTA, 10 mM DTT pH 8.0.

MR1 on C1R.MR1 cells = assay: Upregulation of MR1 surface expression; assay type: cell-based, human; details: 24 h time course, mAb 26.5
Protocol: MAIT reporter cell activation assays and MR1 upregulation assays were performed by slight modifications to reported methods. Briefly, Jurkat cells transduced with genes encoding a MAIT TCR comprising the TRAV1-2-TRAJ33 invariant α chain, and a TRBV6-1 β chain, were tested for activation by co-incubation with compounds and C1R antigen-presenting cells expressing MR1 (CIR.MR1) for 16 h or over a time course as indicated. Cells were subsequently stained with PE-Cy7-conjugated anti-CD3 (UCHT1, eBioscience, 1:300), and APC-conjugated anti-CD69 (BD, 1:25) antibodies as well as biotinylated anti-MR1 mAb 26.5, a gift from Dr Ted Hansen, Washington University School of Medicine, St Louis, MO[53], followed by Streptavidin-PE (BD, 1:1,000), before analysis by on a FACS CantoII (BD) flow cytometer. Activation of Jurkat.MAIT was measured by an increase in surface CD69 expression. MR1 expression was detected on gated C1R.MR1 cells in the same assay.

human MAIT cells = assay: In vitro PBMC stimulation assay (intracellular cytokine staining); assay type: cell-based; details: human PBMCs alone or with THP-1 cells
Protocol: To assess the ability of 11 to activate MAIT cells, human PBMCs were cultured alone, or with THP-1 cells, in the presence of the compounds, and cytokine production assessed by intracellular cytokine staining.
Stimulation of PBMCs was performed essentially as previously described. Briefly, 5 × 10^5 PBMCs were cultured, alone or with 1 × 10^5 THP-1 cells, overnight with or without compounds 3c or 11 at a range of doses or with PMA and ionomycin (5 ng ml^−1 and 1 μg ml^−1 final concentrations, respectively) as a positive control. BD GolgiStop (1:1,000 dilution) was added after the first hour of stimulation. Cells were stained for surface markers using human MR1-5-OP-RU tetramer (PE, 1:300), and monoclonal antibodies to CD3 (PE-CF594, UCHT1, BD Horizon, 1:50), CD161 (PE-Cy7, HP-3G10, Biolegend, 1:50) for 30 min on ice and fixed in 1% paraformaldehyde before cytokine production by MAIT cells was detected by intracellular cytokine staining with monoclonal antibodies to TNF (APC, MAb11, eBioscience, 1:50) and IFNγ (AlexaFluor700, B27, BD 1:50) in the presence of 0.3% saponin. Data was acquired on a BD LSR-Fortessa and analysed using FlowJo software (Tree Star).

physchem = details: for half-life: PBS buffer
Protocol: as §1, §2, §3, §4, §5

Stability in DMSO (NMR) = assay type: physicochemical; details: for days at room temperature
[3] = PBS pH 7.4, 37 °C, DMSO stock diluted into buffer

SMILES: CC(=O)C(C)=Nc1c(NCC(O)C(O)C(O)CO)[nH]c(=O)[nH]c1=O [3a, 5-(1-methyl-2-oxopropylideneamino)-6-D-ribitylaminouracil]
EC50 [1]: 0.024 µM | time to complete degradation ([2]; pH 8.0, 15 °C): < 5 min

SMILES: Cc1cnc2c(=O)[nH]c(=O)nc-2n1C[C@H](O)[C@H](O)[C@H](O)CO [4c]
EC50 [1]: > 0.1 µM

SMILES: Nc1c(NC[C@H](O)[C@H](O)[C@H](O)CO)[nH]c(=O)[nH]c1=O [compound 1, 5-amino-6-D-ribitylaminouracil, reference compound]
EC50 [1]: 0.018 µM

SMILES: O=CC=Nc1c(NCC(O)C(O)C(O)CO)[nH]c(=O)[nH]c1=O [3b, 5-(2-oxoethylideneamino)-6-D-ribitylaminouracil]
EC50 [1]: 0.00051 µM | half-life at 0.065 mM (physchem; TBS buffer, pH 8): 0.3 h

SMILES: CC(=O)C=Nc1c(NCC(O)C(O)C(O)CO)[nH]c(=O)[nH]c1=O [3c, 5-(2-oxopropylideneamino)-6-D-ribitylaminouracil]
half-life at 1 mM (physchem; MilliQ water, pH 6.8): 7.68 h | half-life (physchem; pH 7.4): 0.2 h | half-life (physchem; pH 8): 14 h | half-life at 0.065 mM (physchem; TBS buffer, pH 8): 14.4 h | half-life at 0.25 mM (physchem; TBS buffer, pH 8): 14.9 h | half-life at 10 mM (physchem; TBS buffer, pH 8): 8.63 h | t1/2 ([2]; PBS pH 7.4, 15 °C): 5.7 h | t1/2 [2, 3]: 1.47 h | t1/2 ([2]; pH 5.4 ammonium acetate buffer, 15 °C): 0.733 h | t1/2 ([2]; pH 5.4 ammonium acetate buffer, 37 °C): 0.217 h | half-life ([2]; pH 6.8 (MilliQ water), 15 °C, 0.065 mM): 12 h | t1/2 ([2]; pH 6.8 MilliQ water, 15 °C): 12.3 h | t1/2 ([2]; pH 6.8 MilliQ water, 37 °C): 2.18 h | stable in DMSO solution (Stability in DMSO (NMR)): > 95% | time at which MR1 upregulation peaked (MR1 on C1R.MR1 cells): 4 h

Continued, in another order:

EC50 [1]: 0.014 ± 0.014 µM | t1/2 ([2]; PBS pH 7.4, 15 °C): 1.92 h | t1/2 [2, 3]: 0.65 h
SMILES: CC(=O)/C=N/c1c(N(C)C[C@H](O)[C@H](O)[C@H](O)CO)[nH]c(=O)[nH]c1=O [compound 9]

refolding of human MR1 (human MR1): readily refolded | aqueous stability ([2]; PBS buffer pH 7.4, 37 °C, 5 days): no degradation observed over 5 days
SMILES: CC(=O)/C=C/c1c(CC[C@H](O)[C@H](O)[C@H](O)CO)[nH]c(=O)[nH]c1=O [compound 11]
MR1 surface expression (MR1 on C1R.MR1 cells): continued to increase over 24 h | cytokine production by human MAIT cells (human MAIT cells): stimulated the production of interferon-γ (IFNγ) and tumour necrosis factor (TNF)

EC50 [1]: > 10 µM | t1/2 ([2]; PBS pH 7.4, 15 °C): 10.2 h | t1/2 [2, 3]: 2.25 h
SMILES: CC(=O)/C=C/c1c(N(C)C[C@H](O)[C@H](O)[C@H](O)CO)[nH]c(=O)[nH]c1=O [compound 10]

Reference: article PMC5344979, “Stabilizing short-lived Schiff base derivatives of 5-aminouracils that activate mucosal-associated invariant T cells” (Nature Communications, 2017)
